Assay results from US10960020B2, “Modulation of PCSK9 and LDLR through DRP1 inhibition” (THE BRIGHAM AND WOMEN'S HOSPITAL, INC., priority 2016, dated 2021).
“Also recorded” adds a separate entry of the source.

Key:
[1] = system: HNF1A, SREBP-2, and SREBP-1a; assay: Real time PCR, PCSK9 regulating transcription factors; format: cell-based; conditions: HepG2 and primary human hepatocytes, Mdivi-1 50 μM, 24 hours
Excerpt: (§1) Human cells and mouse liver was homogenized with TriZolTM (Life Technologies, Grand Island, N.Y.) to isolate RNA. QuantiTectTM Reverse Transcription Kit (Qiagen, Hilden, Germany) was used for reverse transcription on total RNA. cDNA was generated using the Quanta gScriptTM cDNA Synthesis Kit (Bioscience Inc., Gaithersburg, Md.). mRNA levels were quantified on a 7900HT real-time PCR system (Thermo Fisher Scientific) using TaqManTM real-time PCR with the following probes: Hs02758991_g1 (human GAPDH); Mm99999915_g1 (mouse Gapdh); Hs00236329 m1 (human BCL2L1); Hs00247147_m1 (human DRP1); Hs00545399_m1 (human PCSK9); Mm01263610_m1 (mouse Pcsk9); Hs00168352_m1 (human HMGCR); […]); Hs00181192_m1 (human LDLR); Mm00440169_m1 (mouse Ldlr); Hs01088691_m1 (human SREBP1); Mm00550338_m1 (mouse Srebp1); Hs00231674_m1 (human SREBP1a); custom primer (human SREBP1c); Hs01081784_m1 (human SREBP2); Mm01306292_m1 (mouse Srebp2); Hs01005622_m1 (human FASN); […]); Hs00167041_m1 (human HNF1A); Mm00493434_m1 (mouse Hnf1a); Hs00171168 (human APOE); Hs01059118_m1 (human ABCA1); Hs01103582_s1 (human JUN). Mouse SREBP-1c was analyzed by SYBERTM green PCR with the following primers: [NT] All expression levels were normalized to GAPDH using the ΔΔCT method.

[2] = system: naïve wild type rodents; conditions: up to ten weeks after treatment, Mdivi-1 injection; cited from earlier work
[3] = system: PCSK9 mRNA; assay: Real time PCR, HepG2 PCSK9 mRNA; format: cell-based, human; conditions: HepG2, Mdivi-1 50 μM, 24 hours
Excerpt: as §1

[4] = system: ischemia/reperfusion injury-induced myocardial infarction; conditions: mice; cited from earlier work

SMILES: COc1cc(-n2c(S)nc3ccccc3c2=O)c(Cl)cc1Cl [Mdivi-1, 3-(2,4-Dichloro-5-methoxyphenyl)-2,3-dihydro-2-thioxo-4(1H)-quinazolinone]
- Expression of HNF1A, SREBP-2, and SREBP-1a [1]: not changed
- abnormal phenotypes or cytotoxicity [2]: no abnormal phenotypes or cytotoxicity
- Cellular PCSK9 mRNA [3]: reduced; also recorded: strongly reduced
- ischemia/reperfusion injury-induced myocardial infarction [4]: reduces
